Results reported in patent publication US20260242391A1 (priority 2023, published 2026).

Key:
HL-60 = HL-60 differentiation potency; format: cell-based; conditions: Homo sapiens
in vitro = conditions: human

| SMILES | EC50 (HL-60) | IC50 (in vitro) |
| --- | --- | --- |
| C[C@H]1[C@H](NCc2ccccc2)O[C@@H]2O[C@@]3(C)CC[C@H]4[C@H](C)CC[C@@H]1[C@@]24OO3 [Compound 101, (3R,5aS,6R,8aS, 9R,10R,12R, 12aR)-N-benzyl-3,6,9-trimethyldeca-hydro-12H-3,12-epoxy[1,2] dioxepino[4,3-i] isochromen-10-amine] | 835 nM | 1320 nM |
| C[C@H]1[C@@H](OCCc2ccc(C(=O)O)cc2)O[C@@H]2O[C@@]3(C)CC[C@H]4[C@H](C)CC[C@@H]1[C@@]24OO3 [Compound 36, 4-(2-(((3R,5aS,6R,8aS, 9R,10S,12R, 12aR)-3,6,9-trimethyldeca-hydro-12H-3,12-epoxy[1,2]dioxepino[4,3-i]isochromen-10-yl)oxy)ethyl) benzoic acid] | 526 nM | > 20000 nM |
| C[C@H]1[C@H](N2CC[C@@H](C(=O)O)C2)O[C@@H]2O[C@@]3(C)CC[C@H]4[C@H](C)CC[C@@H]1[C@@]24OO3 [Compound 69, (R)-1-((3R,5aS,6R,8aS, 9R,10R,12R, 12aR)-3,6,9-trimethyldeca-hydro-12H-3,12-epoxy[1,2]dioxepino[4,3-i]isochromen-10-yl)pyrrolidine-3-carboxylic acid] | > 20000 nM | > 20000 nM |
| C[C@H]1[C@H](N2CCC(C(=O)NC3COC3)CC2)O[C@@H]2O[C@@]3(C)CC[C@H]4[C@H](C)CC[C@@H]1[C@@]24OO3 [Compound 60, N-(oxetan-3-yl)-1-((3R,5aS, 6R,8aS,9R,10R, 12R,12aR)-3,6,9-trimethyldeca-hydro-12H-3,12-epoxy[1,2]dioxepino[4,3-i]isochromen-10-yl)piperidine-4-carboxamide] | 11200 nM | 11800 nM |
| C[C@H]1[C@@H](OCC(=O)N2C[C@H](F)C[C@H]2C(=O)O)O[C@@H]2O[C@@]3(C)CC[C@H]4[C@H](C)CC[C@@H]1[C@@]24OO3 [Compound 150, (2S,4R)-4-fluoro-1-(2-(((3R,5aS,6R,8aS, 9R,10S,12R, 12aR)-3,6,9-trimethyldeca-hydro-12H-3,12-epoxy[1,2]dioxepino[4,3-i]isochromen-10-yl)oxy)acetyl) pyrrolidine-2-carboxylic acid] | > 20000 nM | > 20000 nM |
| C[C@H]1[C@@H](OCc2ccc(C(=O)O)c(F)c2F)O[C@@H]2O[C@@]3(C)CC[C@H]4[C@H](C)CC[C@@H]1[C@@]24OO3 [Compound 31, 2,3-difluoro-4-((((3R,5aS,6R, 8aS,9R,10S,12R, 12aR)-3,6,9-trimethyldeca-hydro-12H-3,12-epoxy[1,2]dioxepino[4,3-i]isochromen-10-yl)oxy)methyl) benzoic acid] | 324 nM | > 20000 nM |
| Cc1cc(C(=O)O)ccc1CO[C@H]1O[C@@H]2O[C@@]3(C)CC[C@H]4[C@H](C)CC[C@@H]([C@H]1C)[C@@]24OO3 [Compound 74, 3-methyl-4-((((3R,5aS,6R,8aS, 9R,10S,12R, 12aR)-3,6,9-trimethyldeca-hydro-12H-3,12-epoxy[1,2]dioxepino[4,3-i]isochromen-10-yl)oxy)methyl) benzoic acid] | 865 nM | > 20000 nM |
| C[C@H]1[C@H](OCC(=O)N2CC[C@@H](C(=O)O)C2)O[C@@H]2O[C@@]3(C)CC[C@H]4[C@H](C)CC[C@@H]1[C@@]24OO3 [Compound 163, (R)-1-(2-(((3R,5aS,6R,8aS, 9R,10R,12R, 12aR)-3,6,9-trimethyldeca-hydro-12H-3,12-epoxy[1,2]dioxepino[4,3-i]isochromen-10-yl)oxy)acetyl) pyrrolidine-3-carboxylic acid] | > 20000 nM | > 20000 nM |
| C[C@H]1[C@@H](OCC23CC(C(=O)O)(C2)C3)O[C@@H]2O[C@@]3(C)CC[C@H]4[C@H](C)CC[C@@H]1[C@@]24OO3 [Compound 55, 3-((((3R,5aS,6R,8aS, 9R,10S,12R, 12aR)-3,6,9-trimethyldeca-hydro-12H-3,12-epoxy[1,2]dioxepino[4,3-i]isochromen-10-yl)oxy)methyl) bicyclo[1.1.1] pentane-1-carboxylic acid] | 7400 nM | > 20000 nM |
| C[C@H]1[C@@H](OC[C@H]2CC[C@@H](C(=O)O)N2C)O[C@@H]2O[C@@]3(C)CC[C@H]4[C@H](C)CC[C@@H]1[C@@]24OO3 [Compound 144, (2S,5R)-1-methyl-5-((((3R,5aS,6R,8aS, 9R,10S,12R, 12aR)-3,6,9-trimethyldeca-hydro-12H-3,12-epoxy[1,2]dioxepino[4,3-i]isochromen-10-yl)oxy)methyl) pyrrolidine-2-carboxylic acid] | 3350 nM | 14400 nM |

Stronger by EC50 (HL-60), values ahead:

| EC50 (HL-60) | IC50 (in vitro) | SMILES |
| --- | --- | --- |
| 241 nM | > 20000 nM | C[C@H]1[C@@H](O[C@H]2CC[C@@H](CC(=O)O)C2)O[C@@H]2O[C@@]3(C)CC[C@H]4[C@H](C)CC[C@@H]1[C@@]24OO3 [Compound 130, 2-((1R,3S)-3-(((3R,5aS,6R,8aS, 9R,10S,12R, 12aR)-3,6,9-trimethyldeca-hydro-12H-3,12-epoxy[1,2]dioxepino[4,3-i]isochromen-10-yl)oxy)cyclo-pentyl)acetic acid] |
| 283 nM | > 20000 nM | C[C@H]1[C@@H](OCc2cc(F)c(C(=O)O)c(F)c2)O[C@@H]2O[C@@]3(C)CC[C@H]4[C@H](C)CC[C@@H]1[C@@]24OO3 [Compound 29, 2,6-difluoro-4-((((3R,5aS,6R, 8aS,9R,10S,12R, 12aR)-3,6,9-trimethyldeca-hydro-12H-3,12-epoxy[1,2]dioxepino[4,3-i]isochromen-10-yl)oxy)methyl) benzoic acid] |
| 66.9 nM | 1800 nM | C[C@H]1[C@H](OCC#Cc2ccc(C(=O)O)cc2F)O[C@@H]2O[C@@]3(C)CC[C@H]4[C@H](C)CC[C@@H]1[C@@]24OO3 [Compound 166, 3-fluoro-4-(3-(((3R,5aS,6R,8aS, 9R,10R,12R, 12aR)-3,6,9-trimethyldeca-hydro-12H-3,12-epoxy[1,2]dioxepino[4,3-i]isochromen-10-yl)oxy)prop-1-yn-1-yl)benzoic acid] |
| 192 nM | 15000 nM | C[C@H]1[C@@H](Oc2ccc(CC(=O)O)c(F)c2F)O[C@@H]2O[C@@]3(C)CC[C@H]4[C@H](C)CC[C@@H]1[C@@]24OO3 [Compound 23, 2-(2,3-difluoro-4-(((3R,5aS,6R,8aS, 9R,10S,12R, 12aR)-3,6,9-trimethyldeca-hydro-12H-3,12-epoxy[1,2]dioxepino[4,3-i]isochromen-10-yl)oxy)phenyl) acetic acid] |
| 197 nM | > 20000 nM | C[C@H]1[C@@H](OC[C@H]2CC[C@@H](C(=O)O)C2)O[C@@H]2O[C@@]3(C)CC[C@H]4[C@H](C)CC[C@@H]1[C@@]24OO3 [Compound 136, (1R,3S)-3-((((3R,5aS,6R, 8aS,9R,10S,12R, 12aR)-3,6,9-trimethyldeca-hydro-12H-3,12-epoxy[1,2]dioxepino[4,3-i]isochromen-10-yl)oxy)methyl) cyclopentane-1-carboxylic acid] |
| 111 nM | 7000 nM | C[C@H]1[C@H](OCCCc2ccc(C(=O)O)cc2F)O[C@@H]2O[C@@]3(C)CC[C@H]4[C@H](C)CC[C@@H]1[C@@]24OO3 [Compound 174, 3-fluoro-4-(3-(((3R,5aS,6R,8aS, 9R,10R,12R, 12aR)-3,6,9-trimethyldeca-hydro-12H-3,12-epoxy[1,2]dioxepino[4,3-i]isochromen-10-yl)oxy)propyl) benzoic acid] |
| 97.3 nM | 540 nM | C[C@H]1[C@@H](OC[C@H]2CC[C@@H](C(=O)NC(C)(C)C)CC2)O[C@@H]2O[C@@]3(C)CC[C@H]4[C@H](C)CC[C@@H]1[C@@]24OO3 [Compound 153, (1R,4s)-N-(tert-butyl)-4-((((3R,5aS,6R,8aS, 9R,10S,12R, 12aR)-3,6,9-trimethyldeca-hydro-12H-3,12-epoxy[1,2]dioxepino[4,3-i]isochromen-10-yl)oxy)methyl) cyclohexane-1-carboxamide] |
| 58.1 nM | 1500 nM | C[C@H]1[C@@H](Oc2ccc(C3CC(C(=O)O)C3)cc2)O[C@@H]2O[C@@]3(C)CC[C@H]4[C@H](C)CC[C@@H]1[C@@]24OO3 (stereo partly drawn) [Compound 175, 3-(4-(((3R,5aS,6R,8aS, 9R,10S,12R, 12aR)-3,6,9-trimethyldeca-hydro-12H-3,12-epoxy[1,2]dioxepino[4,3-i]isochromen-10-yl)oxy)phenyl) cyclobutane-1-carboxylic acid] |
| 104 nM | 138 nM | C[C@H]1[C@@H](OCc2ccc(C#N)cc2)O[C@@H]2O[C@@]3(C)CC[C@H]4[C@H](C)CC[C@@H]1[C@@]24OO3 [Compound 19, 4-((((3R,5aS,6R, 8aS,9R,10S,12R, 12aR)-3,6,9-trimethyldeca-hydro-12H-3,12-epoxy[1,2]dioxepino[4,3-i]isochromen-10-yl)oxy)methyl) benzonitrile] |
| 120 nM | > 20000 nM | C[C@H]1[C@@H](OC[C@@H]2CCC[C@H](C(=O)O)C2)O[C@@H]2O[C@@]3(C)CC[C@H]4[C@H](C)CC[C@@H]1[C@@]24OO3 [Compound 138, (1S,3R)-3-((((3R,5aS,6R, 8aS,9R,10S,12R, 12aR)-3,6,9-trimethyldeca-hydro-12H-3,12-epoxy[1,2]dioxepino[4,3-i]isochromen-10-yl)oxy)methyl) cyclohexane-1-carboxylic acid] |
| 72.6 nM | 1000 nM | C[C@H]1[C@@H](OC[C@H]2CC[C@@H](C(=O)NC3CC3)CC2)O[C@@H]2O[C@@]3(C)CC[C@H]4[C@H](C)CC[C@@H]1[C@@]24OO3 [Compound 143, (1R,4s)-N-cyclopropyl-4-((((3R,5aS,6R,8aS, 9R,10S,12R, 12aR)-3,6,9-trimethyldeca-hydro-12H-3,12-epoxy[1,2]dioxepino[4,3-i]isochromen-10-yl)oxy)methyl) cyclohexane-1-carboxamide] |
| 243 nM | 4000 nM | C[C@H]1[C@@H](OCc2cc(Cl)cc(C(=O)O)c2)O[C@@H]2O[C@@]3(C)CC[C@H]4[C@H](C)CC[C@@H]1[C@@]24OO3 [Compound 178, 3-chloro-5-((((3R,5aS,6R,8aS, 9R,10S,12R, 12aR)-3,6,9-trimethyldeca-hydro-12H-3,12-epoxy[1,2]dioxepino[4,3-i]isochromen-10-yl)oxy)methyl) benzoic acid] |
